Measurements as given in patent US20260256792A1, “TREATMENT OF CHRONIC SPONTANEOUS URTICARIA BY ADMINISTERING (R)-2-[3-[4-AMINO-3-(2-FLUORO-4-PHENOXY-PHENYL)PYRAZOLO[3,4-D]PYRIMIDIN-1-YL]PIPERIDINE-1-CARBONYL]-4-METHYL-4-[4-(OXETAN-3-YL)PIPERAZIN-1-YL]PENT-2-ENENITRILE” (priority 2023, published 2026).

System: moderate-to-severe chronic spontaneous urticaria (CSU)
Assay: Phase 2 CSU study: itch severity score over 7 days (ISS7)
Format: in vivo, human
Conditions: ITT
Source text: The study comprises a 12 week, randomized, double-blind, placebo-controlled, multi-center, dose-ranging efficacy and safety phase, followed by a 40 week open label extension (OLE) phase (see FIG. 1). The study consists of three phases and an optional OLE phase. […] Clinically, CSU is characterized by the spontaneous and recurrent appearance of pruritic hives. The proposed primary endpoints were the UAS7 at Week 12 in EU and EU reference countries and the ISS7 in the US. Regardless of where a participant was from, all assessments were the same. The UAS7 score is a composite score containing both the HSS7 and the ISS7. This allowed a global assessment of the two key components of urticaria: hives and itch. […] The UAS is a validated PRO measure. […] The daily UAS scores range from 0 to 6 point/day. […] Patients were to complete the UAS using the e-diary. […] The following secondary endpoints were to be analyzed using the same approach as for the primary endpoint: • Change from baseline in UAS7 at Week 4 • Change from baseline in UAS7 at Week 12 (for US and US reference countries) • Change from baseline in ISS7 at Week 12 (except US and US reference countries) • Change from baseline in HSS7 at Week 12

CC(C)(C=C(C#N)C(=O)N1CCC[C@@H](n2nc(-c3ccc(Oc4ccccc4)cc3F)c3c(N)ncnc32)C1)N1CCN(C2COC2)CC1 [rilzabrutinib, (R)-2-[3-[4-amino-3-(2-fluoro-4-phenoxy-phenyl)pyrazolo[3,4-d]pyrimidin-1-yl]piperidine-1-carbonyl]-4-methyl-4-[4-(oxetan-3-yl)piperazin-1-yl]pent-2-enenitrile]
ISS7 Change difference for rilzabrutinib vs. placebo LS Mean (95% CI) (400 mg BID, Week 2): −2.27
ISS7 Change from baseline LS Mean (SE) (400 mg BID, Week 2): −5.68 (0.80)
ISS7 Post-baseline Mean (SD) (400 mg BID, Week 2): 10.40 (5.75)
ISS7 % Change difference for rilzabrutinib vs. placebo LS Mean (95% CI) (400 mg BID, Week 3): −18.44%
ISS7 % Change from baseline LS Mean (SE) (400 mg BID, Week 3): −40.88 (5.26) %
ISS7 Change difference for rilzabrutinib vs. placebo LS Mean (95% CI) (400 mg BID, Week 3): −2.60
ISS7 Change from baseline LS Mean (SE) (400 mg BID, Week 3): −6.68 (0.84)
ISS7 Post-baseline Mean (SD) (400 mg BID, Week 3): 9.21 (6.17)
ISS7 % Change difference for rilzabrutinib vs. placebo LS Mean (95% CI) (400 mg BID, Week 4): −18.54%
ISS7 % Change from baseline LS Mean (SE) (400 mg BID, Week 4): −44.30 (5.62) %
ISS7 Change difference for rilzabrutinib vs. placebo LS Mean (95% CI) (400 mg BID, Week 4): −2.62
ISS7 Change from baseline LS Mean (SE) (400 mg BID, Week 4): −7.24 (0.89)
ISS7 Post-baseline Mean (SD) (400 mg BID, Week 4): 8.12 (6.28)
ISS7 % Change difference for rilzabrutinib vs. placebo LS Mean (95% CI) (400 mg BID, Week 5): −9.84%
ISS7 % Change from baseline LS Mean (SE) (400 mg BID, Week 5): -43.1%
ISS7 Change difference for rilzabrutinib vs. placebo LS Mean (95% CI) (400 mg BID, Week 5): −1.32
ISS7 Change from baseline LS Mean (SE) (400 mg BID, Week 5): −6.89 (0.88)
ISS7 Post-baseline Mean (SD) (400 mg BID, Week 5): 8.53 (6.95)
ISS7 % Change difference for rilzabrutinib vs. placebo LS Mean (95% CI) (400 mg BID, Week 6): −13.75%
ISS7 % Change from baseline LS Mean (SE) (400 mg BID, Week 6): −42.18 (5.84) %
ISS7 Change difference for rilzabrutinib vs. placebo LS Mean (95% CI) (400 mg BID, Week 6): −1.99
ISS7 Change from baseline LS Mean (SE) (400 mg BID, Week 6): −6.87 (0.93)
ISS7 Post-baseline Mean (SD) (400 mg BID, Week 6): 8.62 (6.58)
ISS7 % Change difference for rilzabrutinib vs. placebo LS Mean (95% CI) (400 mg BID, Week 7): −18.93%
ISS7 % Change from baseline LS Mean (SE) (400 mg BID, Week 7): −47.79 (5.68) %
ISS7 Change difference for rilzabrutinib vs. placebo LS Mean (95% CI) (400 mg BID, Week 7): −2.77
ISS7 Change from baseline LS Mean (SE) (400 mg BID, Week 7): −7.77 (0.91)
ISS7 Post-baseline Mean (SD) (400 mg BID, Week 7): 8.03 (6.39)
ISS7 % Change difference for rilzabrutinib vs. placebo LS Mean (95% CI) (400 mg BID, Week 8): −20.00%
ISS7 % Change from baseline LS Mean (SE) (400 mg BID, Week 8): −52.80 (5.92) %
ISS7 Change difference for rilzabrutinib vs. placebo LS Mean (95% CI) (400 mg BID, Week 8): −2.86
ISS7 Change from baseline LS Mean (SE) (400 mg BID, Week 8): −8.47 (0.93)
ISS7 Post-baseline Mean (SD) (400 mg BID, Week 8): 7.18 (6.69)
ISS7 % Change difference for rilzabrutinib vs. placebo LS Mean (95% CI) (400 mg BID, Week 9): −20.94%
ISS7 % Change from baseline LS Mean (SE) (400 mg BID, Week 9): −51.80 (5.94) %
ISS7 Change difference for rilzabrutinib vs. placebo LS Mean (95% CI) (400 mg BID, Week 9): −2.77
ISS7 Change from baseline LS Mean (SE) (400 mg BID, Week 9): −8.27 (0.96)
ISS7 Post-baseline Mean (SD) (400 mg BID, Week 9): 7.44 (7.20)
ISS7 % Change difference for rilzabrutinib vs. placebo LS Mean (95% CI) (400 mg BID, Week 10): −10.95%
ISS7 % Change from baseline LS Mean (SE) (400 mg BID, Week 10): −48.75 (6.31) %
ISS7 Change difference for rilzabrutinib vs. placebo LS Mean (95% CI) (400 mg BID, Week 10): −1.72
ISS7 Change from baseline LS Mean (SE) (400 mg BID, Week 10): −8.01 (1.01)
ISS7 Post-baseline Mean (SD) (400 mg BID, Week 10): 8.06 (7.29)
ISS7 % Change difference for rilzabrutinib vs. placebo LS Mean (95% CI) (400 mg BID, Week 11): −15.82%
ISS7 % Change from baseline LS Mean (SE) (400 mg BID, Week 11): −49.45 (6.23) %
ISS7 Change difference for rilzabrutinib vs. placebo LS Mean (95% CI) (400 mg BID, Week 11): −2.07
ISS7 Change from baseline LS Mean (SE) (400 mg BID, Week 11): −7.93 (0.99)
ISS7 Post-baseline Mean (SD) (400 mg BID, Week 11): 7.76 (7.01)
ISS7 % Change difference for rilzabrutinib vs. placebo LS Mean (95% CI) (400 mg BID, Week 12): −13.69%
ISS7 % Change from baseline LS Mean (SE) (400 mg BID, Week 12): −50.27 (6.54) %
ISS7 Change difference for rilzabrutinib vs. placebo LS Mean (95% CI) (400 mg BID, Week 12): −1.75
ISS7 Change from baseline LS Mean (SE) (400 mg BID, Week 12): −8.06 (1.02)
ISS7 Post-baseline Mean (SD) (400 mg BID, Week 12): 7.61 (7.18)
ISS7 % Change difference for rilzabrutinib vs. placebo LS Mean (95% CI) (400 mg QPM, Week 1): −8.87%
ISS7 % Change from baseline LS Mean (SE) (400 mg QPM, Week 1): −19.33 (5.35) %
ISS7 Change difference for rilzabrutinib vs. placebo LS Mean (95% CI) (400 mg QPM, Week 1): −1.47
ISS7 Change from baseline LS Mean (SE) (400 mg QPM, Week 1): −3.47 (0.79)
ISS7 Post-baseline Mean (SD) (400 mg QPM, Week 1): 13.08 (4.46)
ISS7 % Change difference for rilzabrutinib vs. placebo LS Mean (95% CI) (400 mg QPM, Week 2): −5.64%
ISS7 % Change from baseline LS Mean (SE) (400 mg QPM, Week 2): −25.13 (5.32) %
ISS7 Change difference for rilzabrutinib vs. placebo LS Mean (95% CI) (400 mg QPM, Week 2): −0.86
ISS7 Change from baseline LS Mean (SE) (400 mg QPM, Week 2): −4.27 (0.81)
ISS7 Post-baseline Mean (SD) (400 mg QPM, Week 2): 12.44 (4.70)
ISS7 % Change difference for rilzabrutinib vs. placebo LS Mean (95% CI) (400 mg QPM, Week 3): −7.34%
ISS7 % Change from baseline LS Mean (SE) (400 mg QPM, Week 3): −29.78 (5.33) %
ISS7 Change difference for rilzabrutinib vs. placebo LS Mean (95% CI) (400 mg QPM, Week 3): −0.97
ISS7 Change from baseline LS Mean (SE) (400 mg QPM, Week 3): −5.06 (0.85)
ISS7 % Change difference for rilzabrutinib vs. placebo LS Mean (95% CI) (400 mg QPM, Week 4): −5.09%
ISS7 % Change from baseline LS Mean (SE) (400 mg QPM, Week 4): −30.86 (5.64) %
ISS7 Change difference for rilzabrutinib vs. placebo LS Mean (95% CI) (400 mg QPM, Week 4): −0.67
ISS7 Change from baseline LS Mean (SE) (400 mg QPM, Week 4): −5.29 (0.90)
ISS7 Post-baseline Mean (SD) (400 mg QPM, Week 4): 11.30 (4.76)
ISS7 % Change difference for rilzabrutinib vs. placebo LS Mean (95% CI) (400 mg QPM, Week 5): 0.86%
ISS7 % Change from baseline LS Mean (SE) (400 mg QPM, Week 5): −32.42 (5.42) %
ISS7 Change difference for rilzabrutinib vs. placebo LS Mean (95% CI) (400 mg QPM, Week 5): 0.08
ISS7 Change from baseline LS Mean (SE) (400 mg QPM, Week 5): −5.48 (0.88)
ISS7 Post-baseline Mean (SD) (400 mg QPM, Week 5): 11.00 (4.61)
ISS7 % Change difference for rilzabrutinib vs. placebo LS Mean (95% CI) (400 mg QPM, Week 6): −8.64%
ISS7 % Change from baseline LS Mean (SE) (400 mg QPM, Week 6): −37.07 (5.96) %
ISS7 Change difference for rilzabrutinib vs. placebo LS Mean (95% CI) (400 mg QPM, Week 6): −1.39
ISS7 Change from baseline LS Mean (SE) (400 mg QPM, Week 6): −6.28 (0.95)
ISS7 Post-baseline Mean (SD) (400 mg QPM, Week 6): 10.23 (5.19)
ISS7 % Change difference for rilzabrutinib vs. placebo LS Mean (95% CI) (400 mg QPM, Week 7): −9.66%
ISS7 % Change from baseline LS Mean (SE) (400 mg QPM, Week 7): −38.52 (5.84) %
ISS7 Change difference for rilzabrutinib vs. placebo LS Mean (95% CI) (400 mg QPM, Week 7): −1.37
ISS7 Change from baseline LS Mean (SE) (400 mg QPM, Week 7): −6.37 (0.93)
ISS7 Post-baseline Mean (SD) (400 mg QPM, Week 7): 10.60 (5.27)
ISS7 % Change difference for rilzabrutinib vs. placebo LS Mean (95% CI) (400 mg QPM, Week 8): −5.60%
ISS7 % Change from baseline LS Mean (SE) (400 mg QPM, Week 8): −38.39 (6.03) %
ISS7 Change difference for rilzabrutinib vs. placebo LS Mean (95% CI) (400 mg QPM, Week 8): −0.61
ISS7 Change from baseline LS Mean (SE) (400 mg QPM, Week 8): −6.22 (0.96)
